Results published in patent US20180371044A1, “PEPTIDOMIMETIC MACROCYCLES” (Aileron Therapeutics, Inc., priority 2015, published 2018).
Where a SMILES comes first, the peptide text is derived from it. Bridges are numbered along the chain shown (N, C = ends). [ ]: non-standard residue; d: D form. The star is where a group is joined. Decanoyl(3,6,9-trioxa) = COCCOCCOCC(=O)*; S5 = C=CCCC[C@](C)(N)C(=O)O; Nle = CCCC[C@H](N)C(=O)O

What was measured:
Plasma compatibility = format: physicochemical
Protocol: The plasma compatibility of exemplary peptidomimetic macrocycles was also determined. Peptidomimetic macrocycles with a plasma compatability value (PC) that is greater than 0.1 were determined as being plasma compatible.

[1] = Plasma PK/PD study in rats; format: in vivo, rat; settings: male Sprague-Dawley rats
Protocol: Five peptidomimetic macrocycles of the invention, as well as sermorelin, were studied to determine pharmacokinetic and pharmacodynamic parameters in rats. Male Sprague-Dawley rats (300 g, non-fasted, cannulated) were used. The study had three arms: IV administration, SC administration, and SC administration (vehicle control). For experiments using sermorelin, a dose level of 3 mg/kg IV/SC bolus was used (dose volume of […] dose and dose concentration of 1 mg/mL). The vehicle used was: 10 wt % N, N-Dimethylacetamide, 10 wt % DMSO, 2 wt % Solutol HS 15 in water for injection containing 45 mg/mL (4.5 wt %) Mannitol and 25 mM (0.38 wt %) Histidine (pH 7.5; 320 mOsm/kg). The peptide was first dissolved at high concentration in DMA and DMSO before a second dilution in Solutol vehicle.
For experiments using peptidomimetic macrocycles, 0.1 mL of DMA and 0.1 mL of DMSO were used to combine with each mg of macrocycle (˜4.3-4.5 mg of macrocycle used in each experiment). Sonication was used to ensure complete solubilization. 0.8 mL of Solutol vehicle was used for each mg of macrocycle in DMA/DMSO. The solutions were mixed gently with pipet or light vortexing. Fresh vials were used for each day of dosing, and macrocycles were stored solid at −20° C. prior to formulation.
For each study arm, 2 rats were bled (350 μL) at specific time points (5 min, 15 min, 30 min, 1 h, 2 h, 4 h, 8 h, 24 h, and 48 h) and a 150 μL bleed was performed just before dosing. Plasma was prepared into K2EDTA tubes by centrifuging for 20 minutes at 4° C. at 2000G maximum 30 minutes after collection. From each 350 μL bleed, 120 μL were transferred to one tube for PK studies and 50 μL to another tube for PD studies and frozen immediately. From the 150 μL bleed, 70 μL were transferred to one tube for PD studies and frozen immediately.

Row | Compound | Plasma Compatability (Plasma compatibility) [mg/mL] | other results
1 | CC/C=C/CC(=O)N[C@@H](Cc1ccc(O)cc1)C(=O)N[C@@H](C)C(=O)N[C@@H](CC(=O)O)C(=O)N[C@@H](C)C(=O)N[C@H](C(=O)N[C@@H](Cc1ccccc1)C(=O)N[C@H](C(=O)N[C@@H](CC(N)=O)C(=O)N[C@@H](CO)C(=O)N[C@@H](Cc1ccc(O)cc1)C(=O)N[C@@H](CCCNC(=N)N)C(=O)N[C@@H](CCCCN)C(=O)N[C@H](C(=O)N[C@@H](CC(C)C)C(=O)NCC(=O)N[C@@H](CCC(N)=O)C(=O)N[C@@H](CC(C)C)C(=O)N[C@@H](CO)C(=O)N[C@@H](C)C(=O)N[C@@H](CCCNC(=N)N)C(=O)N[C@@H](CCCCN)C(=O)N[C@@H](CC(C)C)C(=O)N[C@@H](CC(C)C)C(=O)N[C@@H](CCC(N)=O)C(=O)N[C@@H](CC(=O)O)C(=O)N[C@H](C(=O)N[C@@H](CCSC)C(=O)N[C@@H](CO)C(=O)N[C@@H](CCCNC(=N)N)C(=O)N[C@@H](CCC(N)=O)C(=O)N[C@@H](CCC(N)=O)C(=O)NCC(=O)N[C@@H](CCC(=O)O)C(=O)N[C@@H](CO)C(=O)N[C@@H](CC(N)=O)C(=O)N[C@@H](CCC(N)=O)C(=O)N[C@@H](CCC(=O)O)C(=O)N[C@@H](CCCNC(=N)N)C(=O)NCC(=O)N[C@@H](C)C(=O)N[C@@H](CCCNC(=N)N)C(=O)N[C@@H](C)C(=O)N[C@@H](CCCNC(=N)N)C(=O)N[C@@H](CC(C)C)C(N)=O)[C@@H](C)CC)C(C)C)[C@@H](C)O)[C@@H](C)CC [SP-1, reference compound] | 3.5 | AUC Ext (%) [1]: 13.8%; MRT ([1]; rat, 3 mg/kg): 1.6 h; clearance ([1]; rat, 3 mg/kg, read-out: Clp (converted)): 2.85 mL/min/kg; Vd ([1]; rat, 3 mg/kg, read-out: Vdss): 0.267 L/kg; half-life ([1]; rat, 3 mg/kg, read-out: t ½ (converted)): 55.1 h; AUC(0-inf) ([1]; rat, 3 mg/kg, route not given): 17500 ng·h/mL
2 | CCCC[C@H](NC(=O)[C@@H](NC(=O)[C@H](CC(=O)O)NC(=O)[C@H](CCC(N)=O)NC(=O)[C@H](CC(C)C)NC(=O)[C@H](C)NC(=O)[C@H](CCCCN)NC(=O)[C@H](CCCNC(=N)N)NC(=O)[C@H](C)NC(=O)[C@H](CO)NC(=O)[C@]1(C)CCCC=CCCC[C@](C)(NC(=O)[C@H](CCCCN)NC(=O)[C@H](CCCNC(=N)N)NC(=O)[C@H](Cc2ccc(O)cc2)NC(=O)[C@H](CO)NC(=O)[C@H](CCC(N)=O)NC(=O)[C@@H](NC(=O)[C@H](Cc2ccccc2)NC(=O)[C@@H](NC(=O)[C@H](C)NC(=O)[C@H](CC(=O)O)NC(=O)[C@@H](C)NC(=O)[C@@H](N)Cc2ccc(O)cc2)[C@@H](C)CC)[C@@H](C)O)C(=O)N[C@@H](CC(C)C)C(=O)N[C@@H](C)C(=O)N[C@@H](C)C(=O)N1)[C@@H](C)CC)C(=O)N[C@@H](CO)C(=O)N[C@@H](CCCNC(=N)N)C(N)=O [SP-104] (H-Y[dA]DAIFTQSYRK[S5]LAA[S5]SARKALQDI[Nle]SR-NH2; staple 13-17) | 1.2 | 
3 | CCCC[C@H](NC(=O)[C@@H](NC(=O)[C@H](CC(=O)O)NC(=O)[C@H](CCC(N)=O)NC(=O)[C@H](CC(C)C)NC(=O)[C@H](C)NC(=O)[C@H](CCCCN)NC(=O)[C@H](CCCNC(=N)N)NC(=O)[C@H](C)NC(=O)[C@H](CO)NC(=O)[C@]1(C)CCCC=CCCC[C@](C)(NC(=O)[C@H](CCCCN)NC(=O)[C@H](CCCNC(=N)N)NC(=O)[C@H](Cc2ccc(O)cc2)NC(=O)[C@H](CO)NC(=O)[C@H](CCC(N)=O)NC(=O)[C@@H](NC(=O)[C@H](Cc2ccccc2)NC(=O)[C@@H](NC(=O)[C@H](C)NC(=O)[C@H](CC(=O)O)NC(=O)[C@@H](C)NC(=O)[C@@H](N)Cc2ccc(O)cc2)[C@@H](C)CC)[C@@H](C)O)C(=O)N[C@@H](CC(C)C)C(=O)N[C@@H](C)C(=O)N[C@@H](CCC(=O)O)C(=O)N1)[C@@H](C)CC)C(=O)N[C@@H](CO)C(=O)N[C@@H](CCCNC(=N)N)C(N)=O [SP-105] (H-Y[dA]DAIFTQSYRK[S5]LAE[S5]SARKALQDI[Nle]SR-NH2; staple 13-17) | 1.2 | 

Now from value to compound, other results behind:

Row | Plasma Compatability (Plasma compatibility) [mg/mL] | Compound | other results
4 | 1.6 | CCCC[C@H](NC(=O)[C@@H](NC(=O)[C@H](CC(=O)O)NC(=O)[C@H](CCC(N)=O)NC(=O)[C@H](CC(C)C)NC(=O)[C@H](C)NC(=O)[C@H](CCCCN)NC(=O)[C@H](CCCNC(=N)N)NC(=O)[C@H](C)NC(=O)[C@H](CO)NC(=O)[C@]1(C)CCCC=CCCC[C@](C)(NC(=O)[C@H](CCCCN)NC(=O)[C@H](CCCNC(=N)N)NC(=O)[C@H](Cc2ccc(O)cc2)NC(=O)[C@H](CO)NC(=O)[C@H](CCC(N)=O)NC(=O)[C@@H](NC(=O)[C@H](Cc2ccccc2)NC(=O)[C@@H](NC(=O)[C@H](C)NC(=O)[C@H](CC(=O)O)NC(=O)[C@@H](C)NC(=O)[C@@H](N)Cc2ccc(O)cc2)[C@@H](C)CC)[C@@H](C)O)C(=O)N[C@@H](CC(C)C)C(=O)N[C@@H](C)C(=O)N[C@@H](CCC(N)=O)C(=O)N1)[C@@H](C)CC)C(=O)N[C@@H](CO)C(=O)N[C@@H](CCCNC(=N)N)C(N)=O (single isomer, unassigned) [SP-108] | 
5 | 0.9 | CCCC[C@@H]1NC(=O)[C@H](C)NC(=O)[C@H](CC(C)C)NC(=O)[C@@](C)(NC(=O)[C@H](CCCCN)NC(=O)[C@H](CCCNC(=N)N)NC(=O)[C@H](Cc2ccc(O)cc2)NC(=O)[C@H](CO)NC(=O)[C@H](CCC(N)=O)NC(=O)[C@@H](NC(=O)[C@H](Cc2ccccc2)NC(=O)[C@@H](NC(=O)[C@H](C)NC(=O)[C@H](CC(=O)O)NC(=O)[C@@H](C)NC(=O)[C@@H](N)Cc2ccc(O)cc2)[C@@H](C)CC)[C@@H](C)O)CCCC=CCCC[C@@](C)(C(=O)N[C@@H](CO)C(=O)N[C@@H](C)C(=O)N[C@@H](CCCNC(=N)N)C(=O)N[C@@H](CCCCN)C(=O)N[C@@H](C)C(=O)N[C@@H](CC(C)C)C(=O)N[C@@H](CCC(N)=O)C(=O)N[C@@H](CC(=O)O)C(=O)N[C@H](C(=O)N[C@@H](CCCC)C(=O)N[C@@H](CO)C(=O)N[C@@H](CCCNC(=N)N)C(N)=O)[C@@H](C)CC)NC1=O [SP-106] (H-Y[dA]DAIFTQSYRK[S5]LA[Nle][S5]SARKALQDI[Nle]SR-NH2; staple 13-17) | 
6 | 1.6 | CCCC[C@H](NC(=O)[C@@H](NC(=O)[C@H](CC(=O)O)NC(=O)[C@H](CCC(N)=O)NC(=O)[C@H](CC(C)C)NC(=O)[C@H](C)NC(=O)[C@H](CCCCN)NC(=O)[C@H](CCCNC(=N)N)NC(=O)[C@H](C)NC(=O)[C@H](CO)NC(=O)[C@]1(C)CCCC=CCCC[C@](C)(NC(=O)[C@H](CCCCN)NC(=O)[C@H](CCCNC(=N)N)NC(=O)[C@H](Cc2ccc(O)cc2)NC(=O)[C@H](CO)NC(=O)[C@H](C)NC(=O)[C@@H](NC(=O)[C@H](Cc2ccccc2)NC(=O)[C@@H](NC(=O)[C@H](C)NC(=O)[C@H](CC(=O)O)NC(=O)[C@@H](C)NC(=O)[C@H](Cc2ccc(O)cc2)NC(=O)COCCOCCOC)[C@@H](C)CC)[C@@H](C)O)C(=O)N[C@@H](CC(C)C)C(=O)N[C@@H](C)C(=O)N[C@@H](CCC(N)=O)C(=O)N1)[C@@H](C)CC)C(=O)N[C@@H](CO)C(=O)N[C@@H](CCCNC(=N)N)C(N)=O [SP-135] ({Decanoyl(3,6,9-trioxa)}-Y[dA]DAIFTASYRK[S5]LAQ[S5]SARKALQDI[Nle]SR-NH2; staple 13-17; N-terminus and C-terminus assumed) | 
